In general, IC50 refers to the point on the concentration scale where inhibition reaches its midpoint.

One assay deals with mTORC1 (mTOR/GbL/Raptor) (Homo sapiens, UniProt P42345). Kind of assay: mTOR/GbL/Raptor (mTORC1) ELISA Assay. The conditions noted are these: 0.2 nM mTORC1, 10 μM ATP, 50 nM NHis-tagged 4E-BP1; phosphorylation of 4E-BP1; read-out: IC50. It is filed as biochemical. In a few lines: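 mTORC1 (0.2 nM) phosphorylated NHis-tagged 4E-BP1 (50 nM) with 10 μM ATP in 20 mM Hepes pH 7.2, 10 mM MnCl2, for 120 min at ambient temperature. Product was captured on Ni-chelate plates and detected with anti-phospho-4E-BP1 plus HRP secondary antibody by chemiluminescence.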
On the technique in general: In an ELISA, binding on a coated surface is turned into a signal by an enzyme label.

Another assay addresses PI3Kα (Homo sapiens, UniProt P42336). Kind of assay: PI3K Biochemical Assays (ATP consumption, luciferase-luciferin chemiluminescence). The settings on record: PI3Kα 1.5 nM, ATP 1 μM, PIP2 10 μM; percent of ATP consumed. In a few lines: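 Kinase activity read as percent ATP consumed via luciferase-luciferin chemiluminescence. 1.5 nM enzyme, 1 μM ATP, 10 μM PIP2 in 50 mM Tris pH 7.5, 1 mM EGTA, 10 mM MgCl2, 1 mM DTT, 0.03% CHAPS; ~2 h at ambient temperature, ATP consumption kept to 40-60%.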

PI3Kα, sequence (P42336 whole entry): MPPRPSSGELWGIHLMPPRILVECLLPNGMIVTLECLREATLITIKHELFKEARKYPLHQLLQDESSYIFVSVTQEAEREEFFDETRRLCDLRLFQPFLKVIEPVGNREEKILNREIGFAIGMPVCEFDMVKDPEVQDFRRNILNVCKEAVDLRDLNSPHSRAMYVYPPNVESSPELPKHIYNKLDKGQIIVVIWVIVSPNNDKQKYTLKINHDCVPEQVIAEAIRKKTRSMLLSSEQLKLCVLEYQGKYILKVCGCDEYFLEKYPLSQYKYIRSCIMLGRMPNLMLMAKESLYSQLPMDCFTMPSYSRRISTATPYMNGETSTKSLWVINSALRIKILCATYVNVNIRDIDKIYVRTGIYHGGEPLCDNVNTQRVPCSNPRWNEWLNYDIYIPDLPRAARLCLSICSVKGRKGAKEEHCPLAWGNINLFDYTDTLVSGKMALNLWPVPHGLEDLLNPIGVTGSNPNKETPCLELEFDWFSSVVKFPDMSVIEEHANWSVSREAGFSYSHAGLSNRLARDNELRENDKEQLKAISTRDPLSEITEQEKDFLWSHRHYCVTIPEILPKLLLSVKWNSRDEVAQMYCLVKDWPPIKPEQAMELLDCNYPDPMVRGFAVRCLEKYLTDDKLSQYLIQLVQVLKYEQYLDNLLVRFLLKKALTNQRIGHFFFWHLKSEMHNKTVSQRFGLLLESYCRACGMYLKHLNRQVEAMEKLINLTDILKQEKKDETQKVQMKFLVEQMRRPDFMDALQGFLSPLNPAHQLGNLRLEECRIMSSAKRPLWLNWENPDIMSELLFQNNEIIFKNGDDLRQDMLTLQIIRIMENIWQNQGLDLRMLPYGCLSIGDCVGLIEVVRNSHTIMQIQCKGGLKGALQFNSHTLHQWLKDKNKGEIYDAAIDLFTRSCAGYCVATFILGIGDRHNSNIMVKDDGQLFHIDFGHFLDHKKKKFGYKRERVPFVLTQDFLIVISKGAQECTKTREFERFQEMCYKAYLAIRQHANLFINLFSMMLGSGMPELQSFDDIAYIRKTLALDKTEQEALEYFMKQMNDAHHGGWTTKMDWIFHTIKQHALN
PI3Kα, sequence (P27986 whole entry partner): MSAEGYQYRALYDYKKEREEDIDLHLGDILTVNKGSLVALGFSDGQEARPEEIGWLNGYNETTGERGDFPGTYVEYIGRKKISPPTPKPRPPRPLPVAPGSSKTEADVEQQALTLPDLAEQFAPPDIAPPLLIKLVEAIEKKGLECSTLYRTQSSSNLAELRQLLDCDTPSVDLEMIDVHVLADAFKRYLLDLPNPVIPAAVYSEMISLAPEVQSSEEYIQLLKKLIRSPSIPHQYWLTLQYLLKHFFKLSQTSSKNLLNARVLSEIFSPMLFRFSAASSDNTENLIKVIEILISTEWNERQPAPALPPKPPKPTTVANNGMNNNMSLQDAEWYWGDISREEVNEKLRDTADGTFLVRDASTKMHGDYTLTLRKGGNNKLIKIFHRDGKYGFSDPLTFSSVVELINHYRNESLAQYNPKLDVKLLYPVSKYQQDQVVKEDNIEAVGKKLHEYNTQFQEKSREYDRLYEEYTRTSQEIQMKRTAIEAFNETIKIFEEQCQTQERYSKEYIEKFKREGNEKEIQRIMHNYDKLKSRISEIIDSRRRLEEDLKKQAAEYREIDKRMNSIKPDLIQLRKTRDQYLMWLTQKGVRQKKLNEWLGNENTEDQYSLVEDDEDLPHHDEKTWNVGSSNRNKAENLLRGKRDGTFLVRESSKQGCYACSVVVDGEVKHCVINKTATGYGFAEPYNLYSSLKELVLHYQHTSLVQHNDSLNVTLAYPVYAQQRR

With `Nc1nc2ccc(-c3ccc4c(c3)CN(C(=O)N3CCC(=O)CC3c3cccc(F)c3)CCO4)cc2[nH]1` (stereo not drawn) [Compound 28, 1-{[7-(2-amino-1H-benzimidazol-6-yl)-2,3-dihydro-1,4-benzoxazepin-4(5H)-yl]carbonyl}-2-(3-fluorophenyl)piperidin-4-one], the values for the IC50 on mTORC1 (mTOR/GbL/Raptor) and against PI3Kα were no more than 50 nM and 75 to 200 nM, respectively.

For the compound `CCNc1nc2ccc(-c3ccc4c(c3)CN(C(=O)N3CCC(CF)CC3)CCO4)cc2[nH]1` [Compound 29, N-ethyl-6-(4-{[4-(fluoromethyl)piperidin-1-yl]carbonyl}-2,3,4,5-tetrahydro-1,4-benzoxazepin-7-yl)-1H-benzimidazol-2-amine], the IC50 on mTORC1 (mTOR/GbL/Raptor) was no more than 50 nM; on PI3Kα it was 75 to 200 nM.

With `CCNc1nc2ccc(-c3ccc4c(c3)CN(C(=O)N3CCC(=O)CC3c3cccc(F)c3)CCO4)cc2[nH]1` (stereo not drawn) [Compound 30, 1-({7-[2-(ethylamino)-1H-benzimidazol-6-yl]-2,3-dihydro-1,4-benzoxazepin-4(5H)-yl}carbonyl)-2-(3-fluorophenyl)piperidin-4-one], the IC50 at mTORC1 (mTOR/GbL/Raptor) was no more than 50 nM; against PI3Kα, no more than 75 nM.

For `O=C1CCN(C(=O)N2CCOc3ccc(-c4ccc5[nH]c(NCC(F)(F)F)nc5c4)cc3C2)C(c2cccc(F)c2)C1` (stereo not drawn) [Compound 31, 2-(3-fluorophenyl)-1-{[7-{2-[(2,2,2-trifluoroethyl)amino]-1H-benzimidazol-5-yl}-2,3-dihydro-1,4-benzoxazepin-4(5H)-yl]carbonyl}piperidin-4-one], the IC50 at mTORC1 (mTOR/GbL/Raptor) is no more than 50 nM; against PI3Kα, 200 to 500 nM.

For the compound `O=C1CCN(C(=O)N2CCOc3ccc(-c4ccc5[nH]c(NCCF)nc5c4)cc3C2)C(c2cccc(F)c2)C1` (stereo not drawn) [Compound 32, 1-{[7-{2-[(2-fluoroethyl)amino]-1H-benzimidazol-5-yl}-2,3-dihydro-1,4-benzoxazepin-4(5H)-yl]carbonyl}-2-(3-fluorophenyl)piperidin-4-one], the IC50 on mTORC1 (mTOR/GbL/Raptor) was no more than 50 nM; at PI3Kα, no more than 75 nM.

For `CCNc1nc2ccc(-c3ccc4c(c3)CN(C(=O)N3CCC(C(C)(F)F)CC3)CCO4)cc2[nH]1` [Compound 33, 6-(4-{[4-(1,1-difluoroethyl)piperidin-1-yl]carbonyl}-2,3,4,5-tetrahydro-1,4-benzoxazepin-7-yl)-N-ethyl-1H-benzimidazol-2-amine], the IC50 was no more than 50 nM on mTORC1 (mTOR/GbL/Raptor) and 200 to 500 nM at PI3Kα.

As to `COC(=O)Nc1nc2ncc(-c3ccc4c(c3)CN(C(=O)N3CCC(C(C)(F)F)CC3)CCO4)cc2[nH]1` [Compound 34, methyl [6-(4-{[4-(1,1-difluoroethyl)piperidin-1-yl]carbonyl}-2,3,4,5-tetrahydro-1,4-benzoxazepin-7-yl)-1H-imidazo[4,5-b]pyridin-2-yl]carbamate], the IC50 was no more than 50 nM at mTORC1 (mTOR/GbL/Raptor) and no more than 75 nM on PI3Kα.

`COC(=O)Nc1nc2ncc(-c3ccc4c(c3)CN(C(=O)N3CCC(CCF)CC3)CCO4)cc2[nH]1` [Compound 35, methyl [6-(4-{[4-(2-fluoroethyl)piperidin-1-yl]carbonyl}-2,3,4,5-tetrahydro-1,4-benzoxazepin-7-yl)-1H-imidazo[4,5-b]pyridin-2-yl]carbamate]: the IC50 at mTORC1 (mTOR/GbL/Raptor) is no more than 50 nM; against PI3Kα, no more than 75 nM.

For `COC(=O)Nc1nc2ncc(-c3ccc4c(c3)CN(C(=O)N3CCC(CF)CC3)CCO4)cc2[nH]1` [Compound 36, methyl [6-(4-{[4-(fluoromethyl)piperidin-1-yl]carbonyl}-2,3,4,5-tetrahydro-1,4-benzoxazepin-7-yl)-1H-imidazo[4,5-b]pyridin-2-yl]carbamate], the IC50 on mTORC1 (mTOR/GbL/Raptor) is no more than 50 nM; at PI3Kα it was no more than 75 nM.

Regarding `COC(=O)Nc1nc2ncc(-c3ccc4c(c3)CN(C(=O)N3CCC(=O)CC3c3ccc(F)cc3)CCO4)cc2[nH]1` (stereo not drawn) [Compound 37, methyl [6-(4-{[2-(4-fluorophenyl)-4-oxopiperidin-1-yl]carbonyl}-2,3,4,5-tetrahydro-1,4-benzoxazepin-7-yl)-1H-imidazo[4,5-b]pyridin-2-yl]carbamate], the IC50 is 50 to 250 nM on mTORC1 (mTOR/GbL/Raptor) and no more than 75 nM against PI3Kα.

Regarding `COC(=O)Nc1nc2ncc(-c3ccc4c(c3)CN(C(=O)N3CCC(O)(CF)CC3)CCO4)cc2[nH]1` [Compound 38, methyl [6-(4-{[4-(fluoromethyl)-4-hydroxypiperidin-1-yl]carbonyl}-2,3,4,5-tetrahydro-1,4-benzoxazepin-7-yl)-1H-imidazo[4,5-b]pyridin-2-yl]carbamate], the IC50 on mTORC1 (mTOR/GbL/Raptor) lay in the range of 50 to 250 nM; on PI3Kα it was 75 to 200 nM.

As to `COC(=O)Nc1nc2ncc(-c3ccc4c(c3)CN(C(=O)N3CCC(=O)CC3c3ccc(F)c(F)c3)CCO4)cc2[nH]1` (stereo not drawn) [Compound 39, methyl [6-(4-{[2-(3,4-difluorophenyl)-4-oxopiperidin-1-yl]carbonyl}-2,3,4,5-tetrahydro-1,4-benzoxazepin-7-yl)-1H-imidazo[4,5-b]pyridin-2-yl]carbamate], the values for the IC50 on mTORC1 (mTOR/GbL/Raptor) and on PI3Kα were 50 to 250 nM and no more than 75 nM, respectively.

For `COC(=O)Nc1nc2ncc(-c3ccc4c(c3)CN(C(=O)N3CCC(C#N)CC3)CCO4)cc2[nH]1` [Compound 40, methyl (6-{4-[(4-cyanopiperidin-1-yl)carbonyl]-2,3,4,5-tetrahydro-1,4-benzoxazepin-7-yl}-1H-imidazo[4,5-b]pyridin-2-yl)carbamate], the IC50 on mTORC1 (mTOR/GbL/Raptor) fell in the range of 50 to 250 nM; against PI3Kα it was 200 to 500 nM.

Take `COC(=O)Nc1nc2ncc(-c3ccc4c(c3)CN(C(=O)N3CCC(C)CC3)CCO4)cc2[nH]1` [Compound 41, methyl (6-{4-[(4-methylpiperidin-1-yl)carbonyl]-2,3,4,5-tetrahydro-1,4-benzoxazepin-7-yl}-1H-imidazo[4,5-b]pyridin-2-yl)carbamate]: the IC50 on mTORC1 (mTOR/GbL/Raptor) was no more than 50 nM; against PI3Kα, no more than 75 nM.

For `CC(F)(F)C1CCN(C(=O)N2CCOc3ccc(-c4cnc5nc(N)[nH]c5c4)cc3C2)CC1` [Compound 42, 6-(4-{[4-(1,1-difluoroethyl)piperidin-1-yl]carbonyl}-2,3,4,5-tetrahydro-1,4-benzoxazepin-7-yl)-1H-imidazo[4,5-b]pyridin-2-amine], the figures for the IC50 at mTORC1 (mTOR/GbL/Raptor) and at PI3Kα were no more than 50 nM and no more than 75 nM, respectively.

For `Nc1nc2ncc(-c3ccc4c(c3)CN(C(=O)N3CCC(C(F)F)CC3)CCO4)cc2[nH]1` [Compound 43, 6-(4-{[4-(difluoromethyl)piperidin-1-yl]carbonyl}-2,3,4,5-tetrahydro-1,4-benzoxazepin-7-yl)-1H-imidazo[4,5-b]pyridin-2-amine], the concentration for half-maximal inhibition (IC50) was no more than 50 nM on mTORC1 (mTOR/GbL/Raptor) and 75 to 200 nM on PI3Kα.

On to `Nc1nc2ncc(-c3ccc4c(c3)CN(C(=O)N3CCC(CCF)CC3)CCO4)cc2[nH]1` [Compound 44, 6-(4-{[4-(2-fluoroethyl)piperidin-1-yl]carbonyl}-2,3,4,5-tetrahydro-1,4-benzoxazepin-7-yl)-1H-imidazo[4,5-b]pyridin-2-amine], for which the results for the half-inhibitory concentration (IC50) on mTORC1 (mTOR/GbL/Raptor) and against PI3Kα were no more than 50 nM and no more than 75 nM, respectively.

Turning to `Nc1nc2ncc(-c3ccc4c(c3)CN(C(=O)N3CCC(CF)CC3)CCO4)cc2[nH]1` [Compound 45, 6-(4-{[4-(fluoromethyl)piperidin-1-yl]carbonyl}-2,3,4,5-tetrahydro-1,4-benzoxazepin-7-yl)-1H-imidazo[4,5-b]pyridin-2-amine], the results for the IC50 on mTORC1 (mTOR/GbL/Raptor) and against PI3Kα were no more than 50 nM and no more than 75 nM, respectively.

On to `N#CC1CCN(C(=O)N2CCOc3ccc(-c4cnc5nc(N)[nH]c5c4)cc3C2)CC1` [Compound 46, 1-{[7-(2-amino-1H-imidazo[4,5-b]pyridin-6-yl)-2,3-dihydro-1,4-benzoxazepin-4(5H)-yl]carbonyl}piperidine-4-carbonitrile], for which the figures for the IC50 on mTORC1 (mTOR/GbL/Raptor) and on PI3Kα were no more than 50 nM and no more than 75 nM, respectively.

`NC(=O)C1CCN(C(=O)N2CCOc3ccc(-c4cnc5nc(N)[nH]c5c4)cc3C2)CC1` [Compound 47, 1-{[7-(2-amino-1H-imidazo[4,5-b]pyridin-6-yl)-2,3-dihydro-1,4-benzoxazepin-4(5H)-yl]carbonyl}piperidine-4-carboxamide]: the IC50 at mTORC1 (mTOR/GbL/Raptor) is no more than 50 nM; at PI3Kα it was no more than 75 nM.

For the compound `Nc1nc2ncc(-c3ccc4c(c3)CN(C(=O)N3CCC(=O)CC3c3cccc(F)c3)CCO4)cc2[nH]1` (stereo not drawn) [Compound 48, 1-{[7-(2-amino-1H-imidazo[4,5-b]pyridin-6-yl)-2,3-dihydro-1,4-benzoxazepin-4(5H)-yl]carbonyl}-2-(3-fluorophenyl)piperidin-4-one], the results for the IC50 at mTORC1 (mTOR/GbL/Raptor) and at PI3Kα were no more than 50 nM and no more than 75 nM, respectively.

Regarding `Nc1nc2ncc(-c3ccc4c(c3)CN(C(=O)N3[C@@H]5CC[C@H]3C[C@](O)(C(F)(F)F)C5)CCO4)cc2[nH]1` [Compound 49, 8-{[7-(2-amino-1H-imidazo[4,5-b]pyridin-6-yl)-2,3-dihydro-1,4-benzoxazepin-4(5H)-yl]carbonyl}-3-(trifluoromethyl)-8-azabicyclo[3.2.1]octan-3-(endo)-ol], the IC50 is no more than 50 nM at mTORC1 (mTOR/GbL/Raptor) and no more than 75 nM against PI3Kα.

Regarding `CC(=O)Nc1nc2ccc(-c3ccc4c(c3)CN(C(=O)N3CCC(CF)CC3)CCO4)cc2[nH]1` [Compound 50, N-[5-(4-{[4-(fluoromethyl)piperidin-1-yl]carbonyl}-2,3,4,5-tetrahydro-1,4-benzoxazepin-7-yl)-1H-benzimidazol-2-yl]acetamide], the IC50 fell in the range of 250 to 700 nM at mTORC1 (mTOR/GbL/Raptor) and 500 to 1000 nM against PI3Kα.

`Cc1nc2cc(-c3ccc4c(c3)CN(C(=O)N3CCC(=O)CC3c3cccc(F)c3)CCO4)cnc2[nH]1` (stereo not drawn) [Compound 51, 2-(3-fluorophenyl)-1-{[7-(2-methyl-3H-imidazo[4,5-b]pyridin-6-yl)-2,3-dihydro-1,4-benzoxazepin-4(5H)-yl]carbonyl}piperidin-4-one]: the IC50 on mTORC1 (mTOR/GbL/Raptor) was 50 to 250 nM; at PI3Kα it was 200 to 500 nM.

The values are drawn from patent US8637499B2, “Benzoxazepines as inhibitors of PI3K/mTOR and methods of their use and manufacture” (Exelixis, Inc., priority 2009, dated 2014).
